Read-outs that look alike come from different tables or passages of the source.
How the values were obtained:
DNA-PK = DNA-PK (Homo sapiens, UniProt P78527); test: DNA-PK inhibition assay (ELISA, phosphorylation of GST-p53N66); format: biochemical, Mammalian (isolated from HeLa cell nuclear extract)
Method: In order to assess the inhibitory action of the compounds against DNA-PK in vitro, the following assay was used to determine IC50 values.
To the assay mix, varying concentrations of inhibitor (in DMSO at a final concentration of 1%) were added. After 10 minutes of incubation, ATP was added to give a final concentration of 50 μM along with a 30mer double stranded DNA oligonucleotide (final concentration of 0.5 ng/ml) to initiate the reaction. After 1 hour with shaking, 150 μl of phosphate buffered saline (PBS) was added to the reaction and 5 μl then transferred to a 96 well opaque white plate containing 45 μl of PBS per well where the GSTp53N66 substrate was allowed to bind to the wells for 1 hour. To detect the phosphorylation event on the serine 15 residue of p53 elicited by DNA-PK a p53 phosphoserine-15 antibody (Cell Signaling Technology) was used in a basic ELISA procedure. An anti-rabbit HRP conjugated secondary antibody (Pierce) was then employed in the ELISA before the addition of chemiluminescence reagent (NEN Renaissance) to detect the signal as measured by chemiluminescent counting via a TopCount NXT (Packard).
The enzyme activity for each compound is then calculated using the following equation: […]
These are determined over a range of different concentrations, normally from 10 μM down to 0.001 μM. Such IC50 values are used as comparative values to identify increased compound potencies.

PI 3-kinase = details: stated to be the same as towards DNA-PK; cited from earlier work
cells = details: cited from earlier work
HeLa cells = test: Survival Enhancement Ratio, clonogenic survival assay after 2 Gray irradiation; format: cell-based; details: prior-art compound of WO 03/024949; concentration not given
Method: The Survival Enhancement Ratio (SER) is a ratio of the enhancement of cell kill elicited by the DNA-PK inhibitor after 2 Grays of irradiation compared to […]. DNA-PK inhibitors were used at a concentration of 25, 50, 100 and/or 500 nM. Radiation was delivered by a Faxitron 43855D machine at a dose rate of 1 Gy pre minute The SER at 2 Gray irradiation was calculated from the formula:
The degree of cell killing was monitored by a standard clonogenic survival assay. Briefly, tissue culture treated 6-well plates were seeded with HeLa cells at an appropriate concentration to give 100-200 colonies per well and returned to the incubator in order to allow the cells to attach. Four hours later, compound or vehicle control was added to the cells. The cells were then incubated for 1 hour in the presence of inhibitor prior to irradiation at 2 Gray using a Faxitron 43855D cabinet X-ray machine. The cells were then incubated for a further 16 hours before the media was replaced with fresh media in the absence of DNA-PK inhibitor. After 8 days, colonies formed were fixed and stained with Giemsa (Sigma, Poole, UK) and scored using an automated colony counter (Oxford Optronics Ltd, Oxford, UK). The data was calculated as described above.

[1] = IC50 (mean IC50 of the compounds), mean, DNA-PK from HeLa nuclear extract, 50 μM ATP
[2] = mean, DNA-PK from HeLa nuclear extract, 50 μM ATP, read-out: IC50 (mean IC50 of the compounds)

Row | SMILES | IC50 (DNA-PK; [1]) [µM] | IC50 (DNA-PK; mean IC50, read-out: IC50) [µM] | IC50 (DNA-PK; [2]) [µM] | further results
1 | CCN1CCN(c2ccc(-c3cccc4c(=O)cc(N5CCOCC5)oc34)c3sc4ccccc4c23)CC1 [Compound 1b] | 0.008 |  |  | IC50 (DNA-PK; IC50, mean IC50): < 0.05 µM
2 | CC(C)(C)OC(=O)N1CCN(c2ccc(-c3cccc4c(=O)cc(N5CCOCC5)oc34)c3sc4ccccc4c23)CC1 [Compound 1c, 4-[4-(2-Morpholin-4-yl-4-oxo-4H-chromen-8-yl)-dibenzothiophen-1-yl]-piperazine-1-carboxylic acid tert-butyl ester] | 0.447 |  |  | 
3 | O=c1cc(N2CCOCC2)oc2c(-c3ccc(N4CCC(N5CCOCC5)CC4)c4c3sc3ccccc34)cccc12 [Compound 1f] | 0.024 |  |  | IC50 (DNA-PK; IC50, mean IC50): < 0.05 µM
4 | CC1CN(c2ccc(-c3cccc4c(=O)cc(N5CCOCC5)oc34)c3sc4ccccc4c23)CC(C)N1 (stereo not shown) [Compound 1g] | 0.012 |  |  | IC50 (DNA-PK; IC50, mean IC50): < 0.05 µM
5 | CC(C)(C)OC(=O)N1CCCN(c2ccc(-c3cccc4c(=O)cc(N5CCOCC5)oc34)c3sc4ccccc4c23)CC1 [Compound 1h] | 0.086 |  |  | 
6 | O=C(C1CCCO1)N1CCN(c2ccc(-c3cccc4c(=O)cc(N5CCOCC5)oc34)c3sc4ccccc4c23)CC1 (stereo not shown) [Compound 1k] | 0.08 |  |  | 
7 | COC1CCN(c2ccc(-c3cccc4c(=O)cc(N5CCOCC5)oc34)c3sc4ccccc4c23)CC1 [Compound 1p] | 0.173 |  |  | 
8 | CC(=O)C(C)N1CCN(c2ccc(-c3cccc4c(=O)cc(N5CCOCC5)oc34)c3sc4ccccc4c23)CC1 (stereo not shown) [Compound 2a] |  | < 0.05 | 0.011 | 
9 | COCCOCCN1CCN(c2ccc(-c3cccc4c(=O)cc(N5CCOCC5)oc34)c3sc4ccccc4c23)CC1 [Compound 2b] |  | < 0.05 | 0.004 | 
10 | COCCN1CCN(c2ccc(-c3cccc4c(=O)cc(N5CCOCC5)oc34)c3sc4ccccc4c23)CC1 [Compound 2c] |  | < 0.05 | 0.006 | 
11 | CCOCCN1CCN(c2ccc(-c3cccc4c(=O)cc(N5CCOCC5)oc34)c3sc4ccccc4c23)CC1 [Compound 2e] |  | < 0.05 | 0.007 | 
12 | CCCN1CCN(c2ccc(-c3cccc4c(=O)cc(N5CCOCC5)oc34)c3sc4ccccc4c23)CC1 [Compound 2f] |  | < 0.05 | 0.011 | 
13 | O=c1cc(N2CCOCC2)oc2c(-c3ccc(N4CCN(C5CCCCC5O)CC4)c4c3sc3ccccc34)cccc12 (stereo not shown) [Compound 2k] |  |  | 0.043 | 
14 | NCCN1CCN(c2ccc(-c3cccc4c(=O)cc(N5CCOCC5)oc34)c3sc4ccccc4c23)CC1 [Compound 2l] |  |  | 0.007 | 
15 | O=c1cc(N2CCOCC2)oc2c(-c3ccccc3)cccc12 [LY294002] |  |  |  | IC50 (PI 3-kinase): ~1 µM; sensitisation of cells to the effects of IR (cells): weakly sensitise
16 | O=c1cc(N2CCOCC2)oc2c(-c3cccc4c3sc3ccccc34)cccc12 [reference compound] |  |  |  | SER (HeLa cells): 1.3; IC50 (DNA-PK; IC50, prior-art compound of WO 03/024949, methods as below in the patent): 0.01 to 0.012 µM

The next lines start with results.

Row | IC50 (DNA-PK; [1]) [µM] | IC50 (DNA-PK; mean IC50, read-out: IC50) [µM] | IC50 (DNA-PK; [2]) [µM] | SMILES | further results
17 | 0.011 |  |  | O=c1cc(N2CCOCC2)oc2c(-c3ccc(N4CCNCC4)c4c3sc3ccccc34)cccc12 [Compound 1a, 2-Morpholin-4-yl-8-(1-piperazin-1-yl-dibenzothiophen-4-yl)-chromen-4-one] | IC50 (DNA-PK; IC50, mean IC50): < 0.05 µM
18 | 0.008 |  |  | O=c1cc(N2CCOCC2)oc2c(-c3ccc(N4CCN(CCOCCO)CC4)c4c3sc3ccccc34)cccc12 [Compound 1d] | IC50 (DNA-PK; IC50, mean IC50): < 0.05 µM
19 | 0.017 |  |  | CC(C)N1CCN(c2ccc(-c3cccc4c(=O)cc(N5CCOCC5)oc34)c3sc4ccccc4c23)CC1 [Compound 1e] | IC50 (DNA-PK; IC50, mean IC50): < 0.05 µM
20 | 0.031 |  |  | CC(=O)N1CCN(c2ccc(-c3cccc4c(=O)cc(N5CCOCC5)oc34)c3sc4ccccc4c23)CC1 [Compound 1j] | 
21 | 0.136 |  |  | O=c1cc(N2CCOCC2)oc2c(-c3ccc(N4CCCC(F)C4)c4c3sc3ccccc34)cccc12 (stereo not shown) [Compound 1m] | 
22 | 0.013 |  |  | CN(C)C1CCN(c2ccc(-c3cccc4c(=O)cc(N5CCOCC5)oc34)c3sc4ccccc4c23)CC1 [Compound 1n] | IC50 (DNA-PK; IC50, mean IC50): < 0.05 µM
23 | 0.4 |  |  | CCOC1CCN(c2ccc(-c3cccc4c(=O)cc(N5CCOCC5)oc34)c3sc4ccccc4c23)CC1 [Compound 1o] | 
24 |  | < 0.05 | 0.017 | O=c1cc(N2CCOCC2)oc2c(-c3ccc(N4CCN(CC5CC5)CC4)c4c3sc3ccccc34)cccc12 [Compound 2g] | 
25 |  |  | 0.021 | O=c1cc(N2CCOCC2)oc2c(-c3ccc(N4CCN(CC5CCCO5)CC4)c4c3sc3ccccc34)cccc12 (stereo not shown) [Compound 2i] | 
26 |  |  | 0.009 | CCCOCCN1CCN(c2ccc(-c3cccc4c(=O)cc(N5CCOCC5)oc34)c3sc4ccccc4c23)CC1 [Compound 2j] | 
27 |  | < 0.05 | 0.003 | O=c1cc(N2CCOCC2)oc2c(-c3ccc(N4CCN(CCO)CC4)c4c3sc3ccccc34)cccc12 [Compound 2m] | 
28 |  | < 0.05 | 0.007 | CC(C)NC(=O)CN1CCN(c2ccc(-c3cccc4c(=O)cc(N5CCOCC5)oc34)c3sc4ccccc4c23)CC1 [Compound 2o] | 
29 |  | < 0.05 | 0.024 | CS(=O)(=O)N1CCN(c2ccc(-c3cccc4c(=O)cc(N5CCOCC5)oc34)c3sc4ccccc4c23)CC1 [Compound 3a] | 
30 |  | < 0.05 | 0.021 | CCS(=O)(=O)N1CCN(c2ccc(-c3cccc4c(=O)cc(N5CCOCC5)oc34)c3sc4ccccc4c23)CC1 [Compound 3b] | 

From patent US20090042865A1, “DNA-PK INHIBITORS” (priority 2007, published 2009)
